Values of other authors as cited in paper PMC7395068, “The evolution of strategies to minimise the risk of human drug-induced liver injury (DILI) in drug discovery and development” (Archives of Toxicology, 2020).
Where two headings read alike, the source gives them in different places.

Assays:
[1] = test system: primary human hepatocytes, NIH3T3 fibroblasts, BSEP, CYP3A4; conditions: cited from earlier work
[2] = cited from earlier work
[3] = cited from earlier work; remark: listed apart in the source
[4] = In vitro Assay, ref Schadt 2015

| Compound | Cellular toxicity (3T3 cells) [1, 4] | Combined Assay [1, 4] | GSH adduct HML [1, 4] | Hepatocyte cellular toxicity [1, 4] | MitoTox 3T3 [1, 4] | TDI CYP3A4 [1, 4] | hBSEP inhibition [1, 4] | DILI +VE (5-8), DILI -VE (-4) ([2]; ref Chen 2016) | DILI severity category ([2]; ref Chen 2016) | In vivo DILI ([3]; ref Schadt 2015) | In vivo DILI ([3]; […]) | also measured |
| --- | --- | --- | --- | --- | --- | --- | --- | --- | --- | --- | --- | --- |
| COCCCOc1cc(C[C@@H](C[C@H](N)[C@@H](O)C[C@H](C(=O)NCC(C)(C)C(N)=O)C(C)C)C(C)C)ccc1OC [aliskiren] | -VE | -VE | -VE | -VE | -VE | -VE | -VE | – | – | – | – | – |
| O=C1CCc2ccc(OCCCCN3CCN(c4cccc(Cl)c4Cl)CC3)cc2N1 [aripiprazole] | – | – | – | – | – | – | – | -VE | Ambiguous DILI-concern | -VE | – | Cellular toxicity (3T3 cells) [1]: -VE; Combined Assay [1]: -VE; GSH adduct HML [1]: -VE; Hepatocyte cellular toxicity [1]: -VE; MitoTox 3T3 [1]: -VE; TDI CYP3A4 [1]: -VE; hBSEP inhibition [1]: -VE |
| COC(=O)N[C@H](C(=O)N[C@@H](Cc1ccccc1)[C@@H](O)CN(Cc1ccc(-c2ccccn2)cc1)NC(=O)[C@@H](NC(=O)OC)C(C)(C)C)C(C)(C)C [atazanavir] | +VE | +VE | +VE | +VE | -VE | -VE | +VE | +VE | vLess-DILI-Concern | +VE | – | – |
| NCC(CC(=O)O)c1ccc(Cl)cc1 (stereo not drawn) [baclofen] | -VE | -VE | -VE | -VE | -VE | -VE | -VE | +VE | vLess-DILI-Concern | -VE | – | – |
| CCCC1O[C@@H]2C[C@H]3[C@@H]4CCC5=CC(=O)C=C[C@]5(C)[C@H]4[C@@H](O)C[C@]3(C)[C@]2(C(=O)CO)O1 (stereo partly drawn) [budesonide] | +VE | -VE | +VE | +VE | -VE | -VE | +VE | -VE | vNo-DILI-Concern | -VE | -VE | – |
| CCCC(C)(COC(N)=O)COC(=O)NC(C)C (stereo not drawn) [carisoprodol] | – | – | – | – | – | – | – | -VE | vNo-DILI-Concern | -VE | – | Cellular toxicity (3T3 cells) [1]: -VE; Combined Assay [1]: -VE; GSH adduct HML [1]: -VE; Hepatocyte cellular toxicity [1]: -VE; MitoTox 3T3 [1]: -VE; TDI CYP3A4 [1]: -VE; hBSEP inhibition [1]: -VE |
| CC[C@H]1OC(=O)[C@H](C)[C@@H](O[C@H]2C[C@@](C)(OC)[C@@H](O)[C@H](C)O2)[C@H](C)[C@@H](O[C@@H]2O[C@H](C)C[C@H](N(C)C)[C@H]2O)[C@](C)(OC)C[C@@H](C)C(=O)[C@H](C)[C@@H](O)[C@]1(C)O [clarithromycin] | -VE | +VE | -VE | -VE | +VE | -VE | -VE | +VE | vMost-DILI-Concern | +VE | -VE | – |
| O=C1CN=C(c2ccccc2Cl)c2cc([N+](=O)[O-])ccc2N1 [clonazepam] | – | – | – | – | – | – | – | +VE | vLess-DILI-Concern | -VE | – | Cellular toxicity (3T3 cells) [1]: -VE; Combined Assay [1]: -VE; GSH adduct HML [1]: -VE; Hepatocyte cellular toxicity [1]: -VE; MitoTox 3T3 [1]: -VE; TDI CYP3A4 [1]: -VE; hBSEP inhibition [1]: -VE |
| CN(C)CCC=C1c2ccccc2C=Cc2ccccc21 [cyclobenzaprine] | +VE | -VE | -VE | -VE | -VE | -VE | -VE | +VE | vLess-DILI-Concern | -VE | – | – |
| CCCCc1oc2ccc(NS(C)(=O)=O)cc2c1C(=O)c1ccc(OCCCN(CCCC)CCCC)cc1 [dronedaron] | +VE | -VE | -VE | -VE | -VE | -VE | -VE | – | – | +VE | – | – |
| CN1c2c(oc(=O)n(-c3ccccn3)c2=O)-c2ccccc2S1(=O)=O [droxicam] | -VE | -VE | -VE | -VE | -VE | -VE | -VE | +VE | vMost-DILI-Concern | +VE | – | – |
| COC(=O)C1=C(C)NC(C)=C(C(=O)OC(C)C)C1c1cccc2nonc12 (stereo not drawn) [isradipine] | +VE | -VE | +VE | +VE | -VE | -VE | +VE | +VE | vLess-DILI-Concern | -VE | – | – |
| CC(C)[C@H]1CC[C@H](C(=O)N[C@H](Cc2ccccc2)C(=O)O)CC1 [nateglinide] | – | – | – | – | – | – | – | -VE | Ambiguous DILI-concern | – | -VE | – |
| CC1(C)NC(=O)N(c2ccc([N+](=O)[O-])c(C(F)(F)F)c2)C1=O [nilutamide] | – | – | – | – | – | – | – | +VE | vMost-DILI-Concern | – | +VE | – |
| CC1COc2c(N3CCN(C)CC3)c(F)cc3c(=O)c(C(=O)O)cn1c23 (stereo not drawn) [ofloxacin] | – | – | – | – | – | – | – | – | – | – | – | DILI +VE (5-8), DILI -VE (-4) ([2]; in vivo): +VE; DILI severity category ([2]; in vivo): vLess-DILI-Concern; In vivo DILI ([3]; in vivo): +VE |
| COc1ccc2[nH]c([S+]([O-])Cc3ncc(C)c(OC)c3C)nc2c1 (stereo not drawn) [omeprazole] | – | – | – | – | – | – | – | +VE | vLess-DILI-Concern | – | -VE | – |
